Measurements from the supplement of paper PMC10307832.

What was measured:
Assay in all cases: relative viability (nuclei count vs DMSO), 5 days (fraction); higher = more cells survive
[1] = compound: N#CC[C@H](C1CCCC1)n1cc(-c2ncnc3[nH]ccc23)cn1 [Ruxolitinib] + COc1cc2c(Oc3ccc(NC(=O)C4(C(=O)Nc5ccc(F)cc5)CC4)cc3F)ccnc2cc1OCCCN1CCOCC1 [Foretinib] (partner 0.25 µM)
Summary of the method: (§1)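 Relative viability divides the nuclei count in treated wells by that in vehicle wells. Lung cancer cell lines were seeded in 1536-well plates, dosed by pin tool the next day, and fixed and stained after 5 days in one step with final 0.05% Triton X-100, 1% formaldehyde and 1 ug/ml Hoechst. Dosing was a single drug or a fixed anchor-drug dose plus five library-drug doses (not always all listed) in √10 steps, and values are medians of duplicate plates imaged at 4×.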

[2] = compound: CS(=O)(=O)c1ccc(-c2cnc(N)c(C(=O)Nc3ccccc3)n2)cc1 [VE-821] + Cc1cc(Nc2cc(N3CCN(C)CC3)nc(Sc3ccc(NC(=O)C4CC4)cc3)n2)n[nH]1 [Tozasertib] (partner 0.1 µM)
Summary of the method: as §1

[3] = compound: CS(=O)(=O)c1ccc(-c2cnc(N)c(C(=O)Nc3ccccc3)n2)cc1 [VE-821] + CC(=O)Nc1cccc(-n2c(=O)n(C3CC3)c(=O)c3c(Nc4ccc(I)cc4F)n(C)c(=O)c(C)c32)c1 [Trametinib] (partner 0.02 µM)
Summary of the method: as §1

[4] = compound: CS(=O)(=O)c1ccc(-c2cnc(N)c(C(=O)Nc3ccccc3)n2)cc1 [VE-821] + COc1cc2c(Oc3ccc(NC(=O)C4(C(=O)Nc5ccc(F)cc5)CC4)cc3F)ccnc2cc1OCCCN1CCOCC1 [Foretinib] (partner 0.25 µM)
Summary of the method: as §1

| Cell Line | relative viability ([1]; first compound 0.08 µM) | relative viability ([1]; first compound 0.253 µM) | relative viability ([1]; first compound 0.8 µM) | relative viability ([1]; first compound 2.53 µM) | relative viability ([1]; first compound 8 µM) | relative viability ([2]; first compound 0.08 µM) | relative viability ([2]; first compound 0.253 µM) | relative viability ([2]; first compound 0.8 µM) | relative viability ([2]; first compound 2.53 µM) | relative viability ([2]; first compound 8 µM) | relative viability ([3]; first compound 0.08 µM) | relative viability ([3]; first compound 0.253 µM) | relative viability ([3]; first compound 0.8 µM) | relative viability ([3]; first compound 2.53 µM) | relative viability ([3]; first compound 8 µM) | relative viability ([4]; first compound 0.08 µM) | relative viability ([4]; first compound 0.253 µM) | relative viability ([4]; first compound 0.8 µM) | relative viability ([4]; first compound 2.53 µM) | relative viability ([4]; first compound 8 µM) |
| --- | --- | --- | --- | --- | --- | --- | --- | --- | --- | --- | --- | --- | --- | --- | --- | --- | --- | --- | --- | --- |
| LCLC-97TM1 | 0.848 | 0.753 | 0.826 | 0.834 | 0.889 | 0.307 | 0.224 | 0.213 | 0.484 | 0.184 | 0.225 | 0.152 | 0.194 | 0.227 | 0.217 | 1.12 | 1.05 | 0.878 | 0.98 | 0.885 |
| NCI-H661 | 0.92 | 1.05 | 1.08 | 0.94 | 0.926 | 0.351 | 0.354 | 0.336 | 0.343 | 0.336 | 0.703 | 0.536 | 0.563 | 0.658 | 0.52 | 0.991 | 1.04 | 0.95 | 1.08 | 0.935 |
| NCI-H1944 | 0.839 | 0.886 | 0.876 | 0.873 | 0.877 | 0.285 | 0.253 | 0.219 | 0.231 | 0.193 | 0.401 | 0.445 | 0.432 | 0.399 | 0.364 | 0.917 | 0.84 | 0.694 | 0.862 | 0.487 |
| SW 1573 | 0.979 | 0.916 | 1.1 | 0.834 | 0.885 | 0.164 | 0.174 | 0.181 | 0.216 | 0.197 | 0.53 | 0.627 | 0.574 | 0.547 | 0.378 | 0.96 | 0.853 | 0.861 | 0.815 | 0.87 |
| NCI-H1975 | 1.04 | 0.933 | 0.995 | 0.956 | 0.603 | 0.862 | 0.625 | – | 0.17 | 0.139 | 0.359 | 0.37 | 0.199 | 0.352 | 0.227 | 0.977 | 0.89 | – | 0.82 | 0.709 |
| EPLC-272H | 0.645 | 0.635 | 0.79 | 0.573 | 0.472 | 0.363 | 0.26 | 0.374 | 0.211 | 0.154 | 0.291 | 0.28 | 0.273 | 0.289 | 0.27 | 0.803 | 0.747 | 0.804 | 0.692 | 0.341 |
| EMC-BAC-2 | 1.06 | 0.951 | 1.03 | 0.819 | 0.824 | 0.344 | 0.306 | 0.322 | 0.253 | 0.277 | 0.925 | 0.856 | 0.984 | 1.02 | 0.966 | 1.05 | 0.944 | 0.856 | 1.05 | 0.949 |
| PC-3 [JPC-3] | 0.859 | 1.01 | 0.975 | 0.957 | 0.871 | 0.956 | 0.819 | 0.881 | 0.805 | 0.787 | 0.727 | 0.744 | 0.701 | 0.826 | 0.763 | 1.12 | 0.947 | 1.07 | 1.06 | 0.976 |
| NCI-H2342 | 1.07 | 0.936 | 1.17 | 1.07 | 1.11 | 0.434 | 0.489 | 0.45 | 0.415 | 0.365 | 0.804 | 0.907 | 0.8 | 0.849 | 0.492 | 1.25 | 0.917 | 0.951 | 1.1 | 1 |
| NCI-H1666 | 0.844 | 0.93 | 1.01 | 0.856 | 0.892 | 0.625 | 0.684 | 0.646 | 0.644 | 0.603 | 0.833 | 0.809 | 0.867 | 0.718 | 0.85 | 0.97 | 1.02 | 1.04 | 1.03 | 0.783 |
| NCI-H1915 | 1.1 | 1.11 | 1.17 | 0.947 | 0.982 | 0.472 | 0.45 | 0.341 | 0.35 | 0.303 | 0.331 | 0.288 | 0.281 | 0.349 | 0.303 | 1.15 | 1.08 | 1.03 | 1.09 | 0.912 |
| HCC-15 | 1.04 | 0.995 | 1.1 | 0.926 | 0.771 | 0.451 | 0.361 | 0.322 | 0.347 | 0.309 | 0.354 | 0.334 | 0.39 | 0.499 | 0.487 | 1.16 | 1.1 | 1.1 | 1.27 | 0.98 |
| EKVX | 0.234 | 0.698 | 0.768 | 0.795 | 0.311 | 0.45 | 0.346 | 0.352 | 0.39 | 0.309 | 0.347 | 0.317 | 0.298 | 0.376 | 0.3 | 0.801 | 0.673 | 0.574 | 0.874 | 0.582 |
| PC-14 | – | 0.947 | 0.971 | 0.875 | 0.828 | 0.592 | 0.585 | 0.483 | 0.531 | 0.54 | 0.966 | 0.689 | 0.656 | 0.63 | 0.429 | 1.1 | 0.913 | 0.974 | 1.02 | 0.984 |
| NCI-H650 | – | 1 | 1.14 | 0.917 | 0.678 | 0.744 | 0.744 | 0.643 | 0.765 | 0.707 | 0.99 | 1.01 | 1.11 | 1.02 | 1.08 | 1.04 | 1.05 | 1.08 | 1.04 | 1.07 |
| NCI-H1650 | – | 1.25 | 1.29 | 1.27 | 1.13 | 0.457 | 0.416 | 0.278 | 0.299 | 0.208 | 0.869 | 0.453 | 0.668 | 0.586 | 0.402 | 1.15 | 1.11 | 0.718 | 1.39 | 0.692 |
| NCI-H1355 | 0.85 | 0.967 | 1.12 | 0.87 | 0.893 | 0.542 | 0.52 | 0.404 | 0.369 | 0.194 | 0.53 | 0.424 | 0.349 | 0.429 | 0.381 | 1.04 | 0.942 | 0.768 | 1.01 | 0.729 |
| HOP-62 | 1.16 | 1.07 | 1.16 | 1.11 | 1.09 | 0.399 | 0.404 | 0.349 | 0.382 | 0.361 | 0.402 | 0.413 | 0.351 | 0.403 | 0.429 | 1.14 | 1.04 | 1.07 | 1.22 | 1.09 |
| NCI-H3122 | 0.942 | 0.873 | 1.01 | 0.881 | 0.948 | 0.389 | 0.383 | 0.369 | 0.418 | 0.306 | 0.219 | 0.216 | 0.235 | 0.228 | 0.265 | 0.977 | 0.995 | 0.959 | 0.986 | 0.925 |
| NCI-H1437 | 1.37 | 1.51 | 1.41 | 1.35 | 1.17 | 0.437 | 0.401 | 0.368 | 0.421 | 0.408 | 0.533 | 0.445 | 0.498 | 0.566 | 0.376 | 1.3 | 1.25 | 1.16 | 1.34 | 1.24 |
| BEN | 0.773 | 0.634 | 0.729 | 0.62 | 0.612 | 0.591 | 0.579 | 0.495 | 0.631 | 0.589 | 1.08 | 1.02 | 0.982 | 1.14 | 1.09 | 0.685 | 0.574 | 0.623 | 0.581 | 0.76 |
| NCI-H520 | 0.703 | – | 0.853 | 0.753 | 0.885 | 0.493 | 0.457 | – | 0.435 | 0.858 | 0.752 | 0.744 | 0.654 | 0.752 | 0.44 | 0.853 | 0.727 | 0.454 | 1.45 | 0.762 |
| NCI-H2087 | 1.03 | 0.983 | 1.28 | 0.975 | 0.772 | 0.241 | 0.204 | 0.248 | 0.212 | 0.198 | 0.218 | 0.275 | 0.177 | 0.222 | 0.234 | 1.12 | 0.982 | 1.22 | 1.33 | 1 |
| NCI-H2347 | – | 0.84 | 0.856 | 0.769 | 1.06 | 0.506 | 0.6 | 0.272 | 0.498 | 0.506 | 0.298 | 0.276 | 0.289 | 0.292 | 0.324 | 0.542 | 0.995 | 0.633 | 1.03 | 0.946 |
| NCI-H838 | 1.06 | 0.994 | 0.907 | 0.572 | 0.453 | 0.284 | 0.25 | 0.2 | 0.212 | 0.215 | 0.568 | 0.472 | 0.544 | 0.648 | 0.345 | 1.21 | 0.946 | 0.892 | 1.13 | 0.877 |
| LXF-289 | 0.902 | 0.957 | 0.97 | 0.91 | 0.871 | 0.246 | 0.196 | 0.205 | 0.193 | 0.119 | 0.708 | 0.641 | 0.773 | 0.745 | 0.741 | 1.02 | 0.991 | 0.98 | 1.04 | 1.07 |
| LC-2-ad | – | 0.743 | 0.977 | 0.746 | 0.64 | 0.427 | 0.597 | 0.504 | 0.565 | 0.426 | 0.985 | 0.886 | 0.879 | 0.912 | 0.956 | 1.04 | 1.05 | 1.03 | 1.17 | 1.03 |
| NCI-H2085 | 1.03 | 0.984 | 1.13 | 0.797 | 0.732 | 0.875 | 0.759 | 0.494 | 0.459 | 0.368 | 0.507 | 0.463 | 0.269 | – | 0.364 | 1.05 | 0.915 | 0.863 | 1.01 | 0.812 |
